Results published in the NIST ThermoML archive (doi:10.1016/j.jct.2013.09.039).
Numbers after ± are expanded uncertainties.

Assay: xn = mol fraction of the nth substance listed
Conditions: Liquid, Vibrating tube method

Cc1ccc(C)cc1 [1,4-dimethylbenzene] + CCCCCCCC
mass density [kg/m3]
Conditions | 100 kPa | 5000 kPa | 10000 kPa | 20000 kPa | 30000 kPa | 40000 kPa
288.15 K, x2 = 0.0509 | 854.9 ± 2 | 858.3 ± 2 | 861.8 ± 2 | 868.3 ± 2 | 874.2 ± 2 | 880 ± 2
288.15 K, x2 = 0.0993 | 845.1 ± 2 | 849 ± 2 | 852.5 ± 2 | 858.8 ± 2 | 864.8 ± 2 | 870.6 ± 2
288.15 K, x2 = 0.1981 | 826.4 ± 2 | 830.2 ± 2 | 833.7 ± 2 | 840.4 ± 2 | 846.4 ± 2 | 852.2 ± 2
288.15 K, x2 = 0.2961 | 808.8 ± 2 | 812.6 ± 2 | 816.2 ± 2 | 822.9 ± 2 | 829 ± 2 | 834.9 ± 2.1
288.15 K, x2 = 0.3989 | 791.4 ± 2 | 795.2 ± 2 | 798.9 ± 2 | 805.6 ± 2 | 811.9 ± 2 | 817.8 ± 2.1
288.15 K, x2 = 0.4891 | 776.6 ± 2 | 780.8 ± 2 | 784.6 ± 2 | 791.3 ± 2 | 797.8 ± 2 | 803.8 ± 2.1
288.15 K, x2 = 0.5473 | 768.3 ± 2 | 772 ± 2 | 775.7 ± 2 | 782.7 ± 2 | 789.1 ± 2.1 | 795.1 ± 2.1
288.15 K, x2 = 0.6039 | 760.1 ± 2 | 763.5 ± 2 | 767.2 ± 2 | 774.2 ± 2 | 780.5 ± 2.1 | 786.5 ± 2.1
288.15 K, x2 = 0.8031 | 731.5 ± 2 | 735.9 ± 2 | 739.8 ± 2 | 746.9 ± 2 | 753.3 ± 2.1 | 759.8 ± 2.1
288.15 K, x2 = 0.8963 | 719.7 ± 2 | 723.8 ± 2 | 727.5 ± 2 | 734.8 ± 2 | 741.1 ± 2.1 | 747.2 ± 2.1
288.15 K, x2 = 0.946 | 712.7 ± 2 | 716.7 ± 2 | 720.8 ± 2 | 727.6 ± 2 | 734.2 ± 2.1 | 740.3 ± 2.1
298.15 K, x2 = 0.0509 | 846.1 ± 2 | 850.4 ± 2 | 853.4 ± 2 | 860.3 ± 2 | 866.3 ± 2 | 872.5 ± 2
298.15 K, x2 = 0.0993 | 836.5 ± 2 | 840.8 ± 2 | 844 ± 2 | 850.7 ± 2 | 857.1 ± 2 | 863.1 ± 2
298.15 K, x2 = 0.1981 | 817.9 ± 2 | 822.3 ± 2 | 825.5 ± 2 | 832.4 ± 2 | 838.9 ± 2 | 844.9 ± 2
298.15 K, x2 = 0.2961 | 800.2 ± 2 | 804.6 ± 2 | 808 ± 2 | 815 ± 2 | 821.5 ± 2 | 827.5 ± 2.1
298.15 K, x2 = 0.3989 | 782.9 ± 2 | 787.4 ± 2 | 790.9 ± 2 | 798 ± 2 | 804.5 ± 2 | 810.7 ± 2.1
298.15 K, x2 = 0.4891 | 768.7 ± 2 | 773.3 ± 2 | 776.6 ± 2 | 784 ± 2 | 790.7 ± 2 | 796.8 ± 2.1
298.15 K, x2 = 0.5473 | 760.7 ± 2 | 764.4 ± 2 | 768 ± 2 | 775.2 ± 2 | 781.9 ± 2.1 | 787.9 ± 2.1
298.15 K, x2 = 0.6039 | 752.1 ± 2 | 755.9 ± 2 | 759.5 ± 2 | 766.8 ± 2 | 773.3 ± 2.1 | 779.4 ± 2.1
298.15 K, x2 = 0.8031 | 723.7 ± 2 | 728.5 ± 2 | 732.1 ± 2 | 739.3 ± 2 | 746.2 ± 2.1 | 752.5 ± 2.1
298.15 K, x2 = 0.8963 | 712.2 ± 2 | 716.5 ± 2 | 720 ± 2 | 727.3 ± 2 | 734.1 ± 2.1 | 740.5 ± 2.1
298.15 K, x2 = 0.946 | 704.7 ± 2 | 709.5 ± 2 | 713.2 ± 2 | 720.7 ± 2 | 727.5 ± 2.1 | 733.8 ± 2.1
308.15 K, x2 = 0.0509 | 837.4 ± 2 | 841.4 ± 2 | 845.2 ± 2 | 852.1 ± 2 | 858.9 ± 2 | 865 ± 2
308.15 K, x2 = 0.0993 | 828 ± 2 | 832 ± 2 | 835.8 ± 2 | 842.9 ± 2 | 849.6 ± 2 | 855.8 ± 2
308.15 K, x2 = 0.1981 | 809.3 ± 2 | 813.5 ± 2 | 817.5 ± 2 | 824.5 ± 2 | 831.4 ± 2 | 837.7 ± 2.1
308.15 K, x2 = 0.2961 | 791.6 ± 2 | 796 ± 2 | 800 ± 2 | 807.3 ± 2 | 814.2 ± 2 | 820.5 ± 2.1
308.15 K, x2 = 0.3989 | 774.4 ± 2 | 778.8 ± 2 | 783 ± 2 | 790.3 ± 2 | 797.2 ± 2 | 803.7 ± 2.1
308.15 K, x2 = 0.4891 | 760.3 ± 2 | 764.7 ± 2 | 768.9 ± 2 | 776.4 ± 2 | 783.4 ± 2.1 | 789.7 ± 2.1
308.15 K, x2 = 0.5473 | 752.4 ± 2 | 755.9 ± 2 | 760.1 ± 2 | 767.7 ± 2 | 774.6 ± 2.1 | 781.2 ± 2.1
308.15 K, x2 = 0.6039 | 743.9 ± 2 | 747.2 ± 2 | 751.6 ± 2 | 759.3 ± 2 | 766.3 ± 2.1 | 772.7 ± 2.1
308.15 K, x2 = 0.8031 | 716.1 ± 2 | 719.9 ± 2 | 724.2 ± 2 | 732.1 ± 2 | 739.2 ± 2.1 | 745.9 ± 2.1
308.15 K, x2 = 0.8963 | 704.2 ± 2 | 708.1 ± 2 | 712.4 ± 2 | 720.1 ± 2 | 727.4 ± 2.1 | 734 ± 2.1
308.15 K, x2 = 0.946 | 697.5 ± 2 | 701.3 ± 2 | 705.5 ± 2 | 713.4 ± 2 | 720.7 ± 2.1 | 727.3 ± 2.1
